Test results as given in patent US20240082212A1, “USE OF MDMA FOR TREATMENT OF STRESS-RELATED DISORDERS” (priority 2022, published 2024).
Entries after “also recorded” stand apart in the source; their conditions may differ.

Experiments:
Serotonin 5-HT2B = Serotonin 5-HT2B (Homo sapiens, UniProt P41595); test: Eurofins Panlabs radioligand binding panel, serotonin 5-HT2B; settings: 10 uM
cortical neurons = test: Neurite outgrowth in embryonic rat cortical neuron cultures; assay type: cell-based; settings: 3 days
Excerpt: Female Wistar rats of 17 days gestation were killed by cervical dislocation and the fetuses (typically 6 to 8 in number) were removed from the uteri. Fetal brains were placed in ice-cold medium of Leibovitz (L15, Gibco, France). Cortex was dissected and meninges were carefully removed. The cortical neurons were dissociated by trypsinization (trypsin-EDTA, Gibco) in the presence of DNAse I (Roche, France). The reaction was stopped by addition of Dulbecco's Modified Eagle Medium (DMEM; Gibco) with 10% of fetal bovine serum (FBS; Gibco). The suspension was triturated with a 10-ml pipette and a 21-gauge needle syringe and centrifuged. The pellet of dissociated cells was resuspended in a medium consisting of Neurobasal (Gibco) supplemented with 2% B27 supplement (Gibco), 0.5 mM L-Glutamine (Gibco), and an antibiotic-antimycotic mixture. Viable cells were counted in a Neubauer cytometer and cells were seeded in 96-well plates (Costar) precoated with poly-L-lysine at 10,000 cells/well. […] Stock solutions were prepared in sterile water at 10 mM and stored at −20° C. until used. Further dilutions were prepared in culture in the medium on the day of the treatment. 0.1% Sterile water was present in all tested conditions.
The experimental protocol was performed in two independent cultures (i.e., from two different pregnant rats). For each culture, each condition was tested in sextuplet (6 wells per condition per culture for a total of 12 wells per condition). […] After three days of plating and compound treatment (Day 3), cultures were fixed with paraformaldehyde in phosphate buffered saline at 4° C. (PBS, 4%, Sigma). All subsequent steps were performed at room temperature. Cells were successively permeabilized for 30 minutes using 0.1% triton, saturated with PBS containing 3% bovine serum albumin (BSA) and incubated for 1 hour with anti-beta III tubulin antibody (T5168, Sigma). […] Finally, nuclei were stained with 4′-6-diamidino-2-phenylindole (DAPI). After rinsing the cells with PBS, the plate was imaged and neurite networks were examined and analyzed using a High-Content Screening platform (CellInsight CXS, Thermo Scientific) with integrated Photometrics high-resolution fluorescent camera, Olympus objective (10×) and HCS Studio Cell Analysis Software. Approximately 2,000 neurons per well were analyzed using a validated cortex neuron outgrowth algorithm that utilizes parameters optimized for analysis of embryonic rat cortical neuron cultures. The HCS Studio Cell Analysis Software output included values for neurite total count (#), neurite total length (μm) and total number of branch points (#) for each of the 6 wells per culture. The evaluation of neurite outgrowth was performed using the average number of neurites per neuron (#), the average of total neurite length per neuron (μm) and the average number of branch points per neuron (#) across 12 wells. Data also was transformed to percent (%) of the average vehicle control value. Results were expressed as mean (±s.e.m.) of the transformed (% of vehicle control) data. Statistical analyses were performed on transformed percent of the average vehicle control data for each measure for each test article using one-way analysis of variance (Anova, StatView). Where applicable, Dunnett's test was used for multiple pairwise comparisons to the negative control (vehicle) condition. […] The level of significance was set at p value less than or equal to 0.05 (*p<0.05).

CD (Sprague Dawley) rats = test: Rat functional observation battery (FOB) neurobehavioral evaluation after cumulative SC dosing; assay type: in vivo
Procedure: The observations were assessed through a rat functional observation battery (FOB) and continuous physiological measurements on the day of cumulative dosing, which are provided in further detail below.
Methods. A total of 42 adult male CD® (Sprague Dawley) rats (Charles River Laboratories) were surgically implanted with DSI radiotelemetry devices by personnel at Charles River Laboratories Raleigh, NC, per their test site SOPs. Telemetry devices supported continuous recording of temperature, activity, blood pressure and heart rate. Telemeterized rats were shipped to the Charles River Laboratories testing facility (Mattawan, MI) and acclimated to the environment for at least 1 week prior to experimentation. Animals were pair-housed in solid bottom cages with nonaromatic bedding. On the dosing day, animals were singly housed and then returned to the paired cohort following the dosing/telemetry recording phase. Diet (Lab Diet® Certified Rodent Diet #5CR4) and tap water via an automatic water system were available ad libitum, except during designated procedures. Temperature and humidity were maintained according to the Testing Facility SOP. Animals were randomized into treatment groups using a standard, by weight, measured value randomization procedure. Body weight was determined for each rat prior to dosing.
As illustrated in the Table, a total of 36 rats were included in the study. The vehicle and 2 test article doses were administered in a volume of 1 mL/kg to each of 3 groups of n=12 telemeterized rats via subcutaneous injection four times on a given day, followed by neurobehavioral evaluations. This series was repeated 3 times on study. Each group received all 3 dose levels of the applicable test or control article in ascending order with a 1-week washout between dose levels.
Mortality/cage side clinical observations were conducted for all study animals at least twice daily beginning upon receipt through termination, except on days of receipt and termination where frequency was at least once daily. Detailed clinical observations were conducted for all study animals prior to each of the four cumulative doses in a series. Individual body weights were conducted for all study animals at transfer, prior to randomization, on the day of dosing on each of the 3 cycles of dosing. The body weights recorded at transfer and prior to randomization are not reported but are maintained in the study file. Veterinary care was available throughout the course of the study, and animals were examined by the veterinary staff as needed based on clinical signs or other changes. All animals were provided with HydroGel the night prior to their respective dosing days to potentially mitigate any animal welfare issues related to fluid loss/dehydration.
Neurobehavioral evaluations (blinded) were conducted for all study animals 1 hour following the last (4th) cumulative dose of the series. The neurobehavioral parameters evaluated included: activity measurements (arousal/alertness, posture/body carriage, stereotypy, rearing, and appearance), autonomic measurements (exophthalmus, lacrimation, erected fur, pupil response, salivation, defecation, and palpebral closure/ptosis), excitability measurements (vocalizations, startle response, ease of removal, handling reactivity, and convulsions), neuromuscular measurements (gait/mobility, grip strength/response, air righting reflex, tremor, and body tone), physiological measurements (respiration and body temperature), and sensorimotor measurements (touch response/tactile reflex and thermal response).

[1] = 10 μM, vs 0.1% sterile water vehicle
[2] = 1 h after last of 4 hourly SC injections, R-MDMA and racemic MDMA 10, 20 mg/kg/day, S-MDMA 5, 10 mg/kg/day
[3] = 1 h after last of 4 hourly SC injections, racemic MDMA 10, 20 mg/kg/day, S-MDMA 5, 10 mg/kg/day
[4] = FOB, cumulative SC dosing, dose groups stated in the value, listed as Rac-MDMA
[5] = FOB, cumulative SC dosing, dose groups stated in the value, listed as Rac.-MDMA
[6] = any tested concentration (0.001 to 10000 nM), vs vehicle

Sequence of Serotonin 5-HT2B (P41595 whole entry): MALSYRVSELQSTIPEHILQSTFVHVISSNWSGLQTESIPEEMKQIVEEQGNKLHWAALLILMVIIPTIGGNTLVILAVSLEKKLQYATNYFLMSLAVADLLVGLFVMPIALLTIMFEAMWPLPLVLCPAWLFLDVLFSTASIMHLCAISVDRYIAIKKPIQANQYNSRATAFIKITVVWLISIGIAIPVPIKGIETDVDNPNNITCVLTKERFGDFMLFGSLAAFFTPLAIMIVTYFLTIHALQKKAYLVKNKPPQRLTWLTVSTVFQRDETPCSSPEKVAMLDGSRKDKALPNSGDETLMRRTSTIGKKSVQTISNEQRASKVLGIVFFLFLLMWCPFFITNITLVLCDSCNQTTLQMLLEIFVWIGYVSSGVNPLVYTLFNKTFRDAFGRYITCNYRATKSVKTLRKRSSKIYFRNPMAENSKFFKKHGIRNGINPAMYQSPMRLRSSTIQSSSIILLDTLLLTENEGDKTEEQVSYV

For `CNC(C)Cc1ccc2c(c1)OCO2` (racemic) [Racemic MDMA, 3,4-methylenedioxymethamphetamine], the “% inhibition of binding or activity” value (Serotonin 5-HT2B) was 85%, the “neurite number (#)” value (cortical neurons; [1]) was “significantly increased” and the “neurite total length (μm)” value (cortical neurons; [1]) was “significantly increased”. The “total number of branch points (#)” value (cortical neurons; [1]) was “significantly increased”, the arousal/alertness and rearing (CD (Sprague Dawley) rats; [2]) was “general increase in overall levels of arousal/alertness and rearing” and the “ease of removal from the home cage and handling reactivity (excitability)” value (CD (Sprague Dawley) rats; [2]) was “Dose-dependent increased difficulty in removal from the home cage and increased handling reactivity”. For the same compound, the forelimb grip strength (CD (Sprague Dawley) rats; [2]) was “dose-dependent statistically significant decreases in forelimb grip strength”, the “salivation and erected fur (autonomic)” value (CD (Sprague Dawley) rats; [2]) was “Dose-dependent increased salivation and erected fur” and the unkempt appearance (CD (Sprague Dawley) rats; [2]) was “increased incidence of unkempt appearance in a dose-dependent manner”. The general gait/mobility changes (CD (Sprague Dawley) rats; [3]) was “General gait/mobility changes were only observed”, the respiration (CD (Sprague Dawley) rats; [3]) was “Rapid respiration was noted” and the “Rank Order Activity Measurement Effects” value (CD (Sprague Dawley) rats; [4]) was “Rac-MDMA (0 mg/kg/day) < Rac-MDMA (20 mg/kg/day) < Rac-MDMA (10 mg/kg/day); also recorded: S-MDMA (10 mg/kg/day) = R-MDMA (10 mg/kg/day) = Rac-MDMA (10 mg/kg/day)”. For the same compound, the “Rank Order Autonomic Measurement Effects” value (CD (Sprague Dawley) rats; [4]) was “R-MDMA (20 mg/kg/day) < S-MDMA (10 mg/kg/day) < Rac-MDMA (20 mg/kg/day); also recorded: Rac-MDMA (0 mg/kg/day) < Rac-MDMA (10 mg/kg/day) < Rac-MDMA (20 mg/kg/day); also recorded: R-MDMA (10 mg/kg/day) < S-MDMA (10 mg/kg/day) = Rac-MDMA (20 mg/kg/day)”, the “Rank Order Excitability Measurement Effects” value (CD (Sprague Dawley) rats; [4]) was “S-MDMA (5 mg/kg/day) < Rac-MDMA (10 mg/kg/day); also recorded: R-MDMA (20 mg/kg/day) = S-MDMA (10 mg/kg/day) < Rac-MDMA (20 mg/kg/day); also recorded: Rac-MDMA (0 mg/kg/day) < Rac-MDMA (10 mg/kg/day) < Rac-MDMA (20 mg/kg/day); also recorded: R-MDMA (10 mg/kg/day) < S-MDMA (10 mg/kg/day) < Rac-MDMA (20 mg/kg/day)” and the “Rank Order Neuromuscular Measurement Effects” value (CD (Sprague Dawley) rats; [4]) was “R-MDMA (20 mg/kg/day) = S-MDMA (10 mg/kg/day) < Rac-MDMA (20 mg/kg/day); also recorded: Rac-MDMA (0 mg/kg/day) < Rac-MDMA (10 mg/kg/day) < Rac-MDMA (20 mg/kg/day); also recorded: R-MDMA (10 mg/kg/day) < S-MDMA (10 mg/kg/day) < Rac-MDMA (20 mg/kg/day)”. The “Rank Order Physiological Measurement Effects” value (CD (Sprague Dawley) rats; [4]) was “R-MDMA (20 mg/kg/day) < S-MDMA (10 mg/kg/day) = Rac-MDMA (20 mg/kg/day); also recorded: Rac-MDMA (0 mg/kg/day) < Rac-MDMA (10 mg/kg/day) < Rac-MDMA (20 mg/kg/day); also recorded: R-MDMA (10 mg/kg/day) < S-MDMA (10 mg/kg/day) = Rac-MDMA (20 mg/kg/day)”, the “Rank Order Sensorimotor Measurement Effects” value (CD (Sprague Dawley) rats; [4]) was “S-MDMA (5 mg/kg/day) < Rac-MDMA (10 mg/kg/day) < R-MDMA (10 mg/kg/day); also recorded: S-MDMA (10 mg/kg/day) < Rac-MDMA (20 mg/kg/day) < R-MDMA (20 mg/kg/day); also recorded: Rac-MDMA (0 mg/kg/day) < Rac-MDMA (10 mg/kg/day) < Rac-MDMA (20 mg/kg/day)” and the “Rank Order Activity Measurement Effects” value (CD (Sprague Dawley) rats; [5]) was “S-MDMA (5 mg/kg/day) < R-MDMA (10 mg/kg/day) < Rac.-MDMA (10 mg/kg/day); also recorded: Rac.-MDMA (20 mg/kg/day) < S-MDMA (10 mg/kg/day) < R-MDMA (20 mg/kg/day); also recorded: Rac.-MDMA (20 mg/kg/day) < S-MDMA (10 mg/kg/day) < R-MDMA (10 mg/kg/day)”. For the same compound, the “Rank Order Autonomic Measurement Effects” value (CD (Sprague Dawley) rats; [5]) was “R-MDMA (10 mg/kg/day) < S-MDMA (5 mg/kg/day) < Rac.-MDMA (10 mg/kg/day)”, the “Rank Order Excitability Measurement Effects” value (CD (Sprague Dawley) rats; [5]) was “R-MDMA (10 mg/kg/day) < S-MDMA (5 mg/kg/day) < Rac.-MDMA (10 mg/kg/day)” and the “Rank Order Neuromuscular Measurement Effects” value (CD (Sprague Dawley) rats; [5]) was “R-MDMA (10 mg/kg/day) < S-MDMA (5 mg/kg/day) < Rac.-MDMA (10 mg/kg/day)”. The “Rank Order Physiological Measurement Effects” value (CD (Sprague Dawley) rats; [5]) was “R-MDMA (10 mg/kg/day) < S-MDMA (5 mg/kg/day) < Rac.-MDMA (10 mg/kg/day)”, the thermal response times (CD (Sprague Dawley) rats; at levels at least two-fold that of vehicle-treated groups, 1 h after last of 4 hourly SC injections) was “Statistically significant increases in thermal response times” and the neuromuscular observations (CD (Sprague Dawley) rats; primarily noted at 20 mg/kg/day racemic-MDMA (4 hourly SC injections)) was “observations of ataxia, hunched posture, and tip-toe walking”.
For `C[C@H](N)Cc1ccc2c(c1)OCO2` [S-MDA, S(+)-MDA], the “% inhibition of binding or activity” value (Serotonin 5-HT2B) was 82%, the “neurite number (#)” value (cortical neurons; [6]) was “did not significantly alter” and the “neurite total length (μm)” value (cortical neurons; [6]) was “did not significantly alter”. The “total number of branch points (#)” value (cortical neurons; [6]) was “did not significantly alter”.
